According to the supplement of paper PMC10307832:

Columns and labels:
Assay in all cases: relative viability (nuclei count vs DMSO), 5 days (fraction); higher = more cells survive
[1] = tested on: 201T
Outline: (§1)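 Medians of duplicate plates are given as relative viability. That measure is the nuclei count in treated wells divided by the count in vehicle wells. Counts were taken on 4× images of lung cancer cell lines in 1536-well plates, 5 days after pin-tool dosing the day after seeding with one drug alone or a fixed anchor-drug dose plus five library-drug doses (not always all listed) in √10 steps.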

[2] = tested on: A-427
Outline: as §1

[3] = tested on: ABC-1
Outline: as §1

[4] = tested on: BEN
Outline: as §1

[5] = tested on: CAL-12T
Outline: as §1

[6] = tested on: H3255
Outline: as §1

[7] = tested on: LC-2-ad
Outline: as §1

[8] = tested on: LCLC-97TM1
Outline: as §1

[9] = tested on: NCI-H1650
Outline: as §1

[10] = tested on: NCI-H1651
Outline: as §1

[11] = tested on: NCI-H1915
Outline: as §1

[12] = tested on: NCI-H1944
Outline: as §1

[13] = tested on: NCI-H2023
Outline: as §1

[14] = tested on: NCI-H2087
Outline: as §1

[15] = tested on: NCI-H441
Outline: as §1

[16] = tested on: NCI-H460
Outline: as §1

[17] = tested on: NCI-H520
Outline: as §1

[18] = tested on: NCI-H596
Outline: as §1

[19] = tested on: NCI-H650
Outline: as §1

[20] = tested on: NCI-H661
Outline: as §1

[21] = tested on: NCI-H727
Outline: as §1

[22] = tested on: PC-3 [JPC-3]
Outline: as §1

Q: How did the relative viability ([1]; first compound 0.01 µM) turn out when `O=c1cc(N2CCOCC2)oc2c(-c3cccc4c3sc3ccccc34)cccc12` + N=C(N)NC(=N)NCCc1ccccc1 [Phenformin] (partner 250 µM) was run?
A: 0.289

Q: And the relative viability ([1]; first compound 0.03162 µM)?
A: 0.488

Q: What about the relative viability ([1]; first compound 0.1 µM) of the same compound?
A: 0.469

Q: And the relative viability ([1]; first compound 0.3162 µM)?
A: 0.441

Q: And the relative viability ([1]; first compound 1 µM)?
A: 0.43

Q: What about the relative viability ([2]; first compound 0.01 µM) of the same compound?
A: 0.31

Q: And the relative viability ([2]; first compound 0.03162 µM)?
A: 0.294

Q: And the relative viability ([2]; first compound 0.1 µM)?
A: 0.315

Q: What about the relative viability ([2]; first compound 0.3162 µM) of the same compound?
A: 0.313

Q: What about the relative viability ([2]; first compound 1 µM) of the same compound?
A: 0.341

Q: And the relative viability ([3]; first compound 0.01 µM)?
A: 0.228

Q: And the relative viability ([3]; first compound 0.03162 µM)?
A: 0.258

Q: What about the relative viability ([3]; first compound 0.1 µM) of the same compound?
A: 0.225

Q: And the relative viability ([3]; first compound 0.3162 µM)?
A: 0.28

Q: What about the relative viability ([3]; first compound 1 µM) of the same compound?
A: 0.266

Q: And the relative viability ([4]; first compound 0.01 µM)?
A: 0.241

Q: What about the relative viability ([4]; first compound 0.03162 µM) of the same compound?
A: 0.305

Q: And the relative viability ([4]; first compound 0.1 µM)?
A: 0.27

Q: What about the relative viability ([4]; first compound 0.3162 µM) of the same compound?
A: 0.271

Q: What about the relative viability ([4]; first compound 1 µM) of the same compound?
A: 0.292

Q: And the relative viability ([5]; first compound 0.01 µM)?
A: 0.519

Q: And the relative viability ([5]; first compound 0.03162 µM)?
A: 0.629

Q: And the relative viability ([5]; first compound 0.1 µM)?
A: 0.607

Q: What about the relative viability ([5]; first compound 0.3162 µM) of the same compound?
A: 0.575

Q: And the relative viability ([5]; first compound 1 µM)?
A: 0.547

Q: What about the relative viability ([6]; first compound 0.01 µM) of the same compound?
A: 0.388

Q: And the relative viability ([6]; first compound 0.03162 µM)?
A: 0.334

Q: And the relative viability ([6]; first compound 0.1 µM)?
A: 0.328

Q: What about the relative viability ([6]; first compound 0.3162 µM) of the same compound?
A: 0.368

Q: What about the relative viability ([6]; first compound 1 µM) of the same compound?
A: 0.35

Q: What about the relative viability ([7]; first compound 0.01 µM) of the same compound?
A: 0.624

Q: And the relative viability ([7]; first compound 0.03162 µM)?
A: 0.592

Q: What about the relative viability ([7]; first compound 0.1 µM) of the same compound?
A: 0.614

Q: What about the relative viability ([7]; first compound 0.3162 µM) of the same compound?
A: 0.547

Q: What about the relative viability ([7]; first compound 1 µM) of the same compound?
A: 0.534

Q: And the relative viability ([8]; first compound 0.01 µM)?
A: 0.43

Q: What about the relative viability ([8]; first compound 0.03162 µM) of the same compound?
A: 0.458

Q: What about the relative viability ([8]; first compound 0.1 µM) of the same compound?
A: 0.431

Q: What about the relative viability ([8]; first compound 0.3162 µM) of the same compound?
A: 0.378

Q: And the relative viability ([8]; first compound 1 µM)?
A: 0.449

Q: And the relative viability ([9]; first compound 0.01 µM)?
A: 0.352

Q: What about the relative viability ([9]; first compound 0.03162 µM) of the same compound?
A: 0.48

Q: What about the relative viability ([9]; first compound 0.1 µM) of the same compound?
A: 0.346

Q: What about the relative viability ([9]; first compound 0.3162 µM) of the same compound?
A: 0.449

Q: And the relative viability ([9]; first compound 1 µM)?
A: 0.362

Q: What about the relative viability ([10]; first compound 0.01 µM) of the same compound?
A: 0.315

Q: What about the relative viability ([10]; first compound 0.03162 µM) of the same compound?
A: 0.366

Q: What about the relative viability ([10]; first compound 0.1 µM) of the same compound?
A: 0.352

Q: What about the relative viability ([10]; first compound 0.3162 µM) of the same compound?
A: 0.345

Q: What about the relative viability ([10]; first compound 1 µM) of the same compound?
A: 0.333

Q: What about the relative viability ([11]; first compound 0.01 µM) of the same compound?
A: 0.381

Q: What about the relative viability ([11]; first compound 0.03162 µM) of the same compound?
A: 0.387

Q: What about the relative viability ([11]; first compound 0.1 µM) of the same compound?
A: 0.371

Q: What about the relative viability ([11]; first compound 0.3162 µM) of the same compound?
A: 0.386

Q: What about the relative viability ([11]; first compound 1 µM) of the same compound?
A: 0.369

Q: And the relative viability ([12]; first compound 0.01 µM)?
A: 0.212

Q: And the relative viability ([12]; first compound 0.03162 µM)?
A: 0.208

Q: And the relative viability ([12]; first compound 0.1 µM)?
A: 0.213

Q: What about the relative viability ([12]; first compound 0.3162 µM) of the same compound?
A: 0.207

Q: What about the relative viability ([12]; first compound 1 µM) of the same compound?
A: 0.237

Q: And the relative viability ([13]; first compound 0.01 µM)?
A: 0.424

Q: What about the relative viability ([13]; first compound 0.03162 µM) of the same compound?
A: 0.397

Q: What about the relative viability ([13]; first compound 0.1 µM) of the same compound?
A: 0.482

Q: What about the relative viability ([13]; first compound 0.3162 µM) of the same compound?
A: 0.425

Q: And the relative viability ([13]; first compound 1 µM)?
A: 0.385

Q: What about the relative viability ([14]; first compound 0.01 µM) of the same compound?
A: 0.423

Q: What about the relative viability ([14]; first compound 0.03162 µM) of the same compound?
A: 0.535

Q: And the relative viability ([14]; first compound 0.1 µM)?
A: 0.45

Q: And the relative viability ([14]; first compound 0.3162 µM)?
A: 0.46

Q: And the relative viability ([14]; first compound 1 µM)?
A: 0.431

Q: What about the relative viability ([15]; first compound 0.01 µM) of the same compound?
A: 0.862

Q: What about the relative viability ([15]; first compound 0.03162 µM) of the same compound?
A: 0.805

Q: And the relative viability ([15]; first compound 0.1 µM)?
A: 0.861

Q: And the relative viability ([15]; first compound 0.3162 µM)?
A: 0.811

Q: What about the relative viability ([15]; first compound 1 µM) of the same compound?
A: 0.771

Q: And the relative viability ([16]; first compound 0.01 µM)?
A: 0.285

Q: What about the relative viability ([16]; first compound 0.03162 µM) of the same compound?
A: 0.522

Q: And the relative viability ([16]; first compound 0.1 µM)?
A: 0.558

Q: What about the relative viability ([16]; first compound 0.3162 µM) of the same compound?
A: 0.505

Q: And the relative viability ([16]; first compound 1 µM)?
A: 0.544

Q: What about the relative viability ([17]; first compound 0.01 µM) of the same compound?
A: 0.663

Q: And the relative viability ([17]; first compound 0.03162 µM)?
A: 0.555

Q: And the relative viability ([17]; first compound 0.1 µM)?
A: 0.547

Q: And the relative viability ([17]; first compound 0.3162 µM)?
A: 0.672

Q: What about the relative viability ([17]; first compound 1 µM) of the same compound?
A: 0.644

Q: And the relative viability ([18]; first compound 0.01 µM)?
A: 0.73

Q: And the relative viability ([18]; first compound 0.03162 µM)?
A: 0.837

Q: And the relative viability ([18]; first compound 0.1 µM)?
A: 0.717

Q: What about the relative viability ([18]; first compound 0.3162 µM) of the same compound?
A: 0.743

Q: And the relative viability ([18]; first compound 1 µM)?
A: 0.76

Q: What about the relative viability ([19]; first compound 0.03162 µM) of the same compound?
A: 0.484

Q: What about the relative viability ([19]; first compound 0.1 µM) of the same compound?
A: 0.302

Q: What about the relative viability ([19]; first compound 0.3162 µM) of the same compound?
A: 0.511

Q: What about the relative viability ([19]; first compound 1 µM) of the same compound?
A: 0.413

Q: And the relative viability ([20]; first compound 0.01 µM)?
A: 0.291

Q: What about the relative viability ([20]; first compound 0.03162 µM) of the same compound?
A: 0.278

Q: And the relative viability ([20]; first compound 0.1 µM)?
A: 0.28

Q: And the relative viability ([20]; first compound 0.3162 µM)?
A: 0.269

Q: What about the relative viability ([20]; first compound 1 µM) of the same compound?
A: 0.285

Q: What about the relative viability ([21]; first compound 0.01 µM) of the same compound?
A: 0.645

Q: What about the relative viability ([21]; first compound 0.03162 µM) of the same compound?
A: 0.546

Q: And the relative viability ([21]; first compound 0.1 µM)?
A: 0.475

Q: What about the relative viability ([21]; first compound 0.3162 µM) of the same compound?
A: 0.641

Q: And the relative viability ([21]; first compound 1 µM)?
A: 0.581

Q: And the relative viability ([22]; first compound 0.01 µM)?
A: 0.467

Q: And the relative viability ([22]; first compound 0.03162 µM)?
A: 0.476

Q: And the relative viability ([22]; first compound 0.1 µM)?
A: 0.441

Q: And the relative viability ([22]; first compound 0.3162 µM)?
A: 0.496

Q: And the relative viability ([22]; first compound 1 µM)?
A: 0.513
